{"source": "ChEMBL document CHEMBL2074479", "about": "“Organic anion transporting polypeptides expressed in liver and brain mediate uptake of microcystin” (Toxicol Appl Pharmacol, 2005)", "key": {"[1]": {"target": "T1, Solute carrier organic anion transporter family member 1A2 (OATP1A2) (Homo sapiens, UniProt P46721)", "T1 sequence (P46721 whole entry)": "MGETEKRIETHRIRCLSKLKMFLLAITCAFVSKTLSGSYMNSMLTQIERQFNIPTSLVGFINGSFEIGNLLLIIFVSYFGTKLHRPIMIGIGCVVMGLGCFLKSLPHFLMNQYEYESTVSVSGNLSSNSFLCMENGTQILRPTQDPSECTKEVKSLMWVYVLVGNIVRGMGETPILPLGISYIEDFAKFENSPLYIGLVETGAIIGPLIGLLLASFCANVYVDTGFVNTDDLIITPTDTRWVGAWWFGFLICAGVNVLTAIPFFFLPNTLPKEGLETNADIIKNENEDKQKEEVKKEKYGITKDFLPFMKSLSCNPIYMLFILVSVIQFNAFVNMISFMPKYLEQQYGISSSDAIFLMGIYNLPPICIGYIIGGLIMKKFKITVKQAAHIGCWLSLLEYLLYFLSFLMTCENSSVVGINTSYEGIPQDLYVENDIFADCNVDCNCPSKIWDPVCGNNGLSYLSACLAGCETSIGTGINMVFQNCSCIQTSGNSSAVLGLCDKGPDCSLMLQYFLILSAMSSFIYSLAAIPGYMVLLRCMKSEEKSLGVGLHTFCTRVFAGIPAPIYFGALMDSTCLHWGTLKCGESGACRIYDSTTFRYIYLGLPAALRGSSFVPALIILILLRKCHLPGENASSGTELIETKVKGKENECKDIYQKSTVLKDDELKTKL", "experiment": "(§1) TP_TRANSPORTER: uptake in Xenopus laevis oocytes", "type": "functional, cell-based, Oocyte"}, "[2]": {"target": "T2, Solute carrier organic anion transporter family member 1B1 (OATP1B1) (Homo sapiens, UniProt Q9Y6L6)", "T2 sequence (Q9Y6L6 whole entry)": "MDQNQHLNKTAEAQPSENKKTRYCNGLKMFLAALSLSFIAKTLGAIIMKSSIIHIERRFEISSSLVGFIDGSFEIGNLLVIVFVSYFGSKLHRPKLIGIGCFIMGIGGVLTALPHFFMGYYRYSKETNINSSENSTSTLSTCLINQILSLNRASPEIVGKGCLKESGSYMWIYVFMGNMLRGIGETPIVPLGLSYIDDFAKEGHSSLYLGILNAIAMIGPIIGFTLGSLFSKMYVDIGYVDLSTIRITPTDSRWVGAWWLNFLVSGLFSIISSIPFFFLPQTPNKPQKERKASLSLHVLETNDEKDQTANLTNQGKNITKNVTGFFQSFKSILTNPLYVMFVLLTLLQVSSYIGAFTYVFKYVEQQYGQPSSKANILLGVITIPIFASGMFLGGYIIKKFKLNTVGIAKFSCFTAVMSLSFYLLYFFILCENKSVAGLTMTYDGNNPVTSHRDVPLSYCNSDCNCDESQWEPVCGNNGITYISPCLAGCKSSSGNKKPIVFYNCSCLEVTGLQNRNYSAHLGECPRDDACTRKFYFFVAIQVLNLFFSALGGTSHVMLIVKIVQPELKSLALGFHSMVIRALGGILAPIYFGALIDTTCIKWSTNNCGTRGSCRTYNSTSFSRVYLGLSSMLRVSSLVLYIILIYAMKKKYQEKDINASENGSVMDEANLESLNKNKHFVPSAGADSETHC", "experiment": "as §1", "type": "functional, cell-based, Oocyte"}, "[3]": {"target": "T3, Solute carrier organic anion transporter family member 1B3 (OATP1B3) (Homo sapiens, UniProt Q9NPD5)", "T3 sequence (Q9NPD5 whole entry)": "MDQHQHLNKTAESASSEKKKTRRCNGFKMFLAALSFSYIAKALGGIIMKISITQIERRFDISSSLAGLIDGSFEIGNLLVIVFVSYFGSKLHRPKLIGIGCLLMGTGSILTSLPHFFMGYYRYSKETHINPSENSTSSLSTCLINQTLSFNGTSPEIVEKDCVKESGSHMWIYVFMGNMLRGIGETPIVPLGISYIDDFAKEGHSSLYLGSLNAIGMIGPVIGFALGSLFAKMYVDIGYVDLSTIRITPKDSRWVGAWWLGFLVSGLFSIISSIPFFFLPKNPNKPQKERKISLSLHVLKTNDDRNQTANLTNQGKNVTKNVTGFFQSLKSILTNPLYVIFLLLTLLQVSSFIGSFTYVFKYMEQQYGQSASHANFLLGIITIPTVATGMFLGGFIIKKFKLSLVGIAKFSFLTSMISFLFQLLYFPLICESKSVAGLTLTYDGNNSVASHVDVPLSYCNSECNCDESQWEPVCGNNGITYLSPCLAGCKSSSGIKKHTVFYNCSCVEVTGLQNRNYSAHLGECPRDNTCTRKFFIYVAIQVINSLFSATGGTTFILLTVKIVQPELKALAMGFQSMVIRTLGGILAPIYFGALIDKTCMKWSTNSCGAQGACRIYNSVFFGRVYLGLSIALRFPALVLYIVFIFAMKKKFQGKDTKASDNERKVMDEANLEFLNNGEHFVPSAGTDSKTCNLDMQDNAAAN", "experiment": "as §1", "type": "functional, cell-based, Oocyte"}, "[4]": {"target": "T4, Solute carrier organic anion transporter family member 1A1 (Rattus norvegicus, UniProt P46720)", "T4 sequence (P46720 whole entry)": "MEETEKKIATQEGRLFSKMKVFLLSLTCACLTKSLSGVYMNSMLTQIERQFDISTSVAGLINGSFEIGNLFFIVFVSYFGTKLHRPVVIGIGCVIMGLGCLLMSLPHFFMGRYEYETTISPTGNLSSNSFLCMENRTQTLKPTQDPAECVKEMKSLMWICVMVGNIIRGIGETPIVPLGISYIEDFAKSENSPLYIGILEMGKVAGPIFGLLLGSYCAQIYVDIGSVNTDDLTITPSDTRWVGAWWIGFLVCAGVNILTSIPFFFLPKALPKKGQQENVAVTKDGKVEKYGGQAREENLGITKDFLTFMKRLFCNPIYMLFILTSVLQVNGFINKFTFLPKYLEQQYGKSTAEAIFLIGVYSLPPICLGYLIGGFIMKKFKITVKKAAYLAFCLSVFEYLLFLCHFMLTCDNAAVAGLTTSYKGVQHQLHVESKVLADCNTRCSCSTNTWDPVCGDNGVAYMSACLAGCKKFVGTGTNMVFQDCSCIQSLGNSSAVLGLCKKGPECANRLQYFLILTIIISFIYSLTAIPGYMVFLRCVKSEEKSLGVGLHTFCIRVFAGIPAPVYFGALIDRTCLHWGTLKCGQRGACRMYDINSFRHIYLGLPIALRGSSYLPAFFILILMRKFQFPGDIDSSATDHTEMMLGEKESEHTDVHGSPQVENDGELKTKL", "experiment": "as §1", "type": "functional, cell-based", "conditions": "oocyte"}, "[5]": {"target": "T5, Solute carrier organic anion transporter family member 1A4 (Rattus norvegicus, UniProt O35913)", "T5 sequence (O35913 whole entry)": "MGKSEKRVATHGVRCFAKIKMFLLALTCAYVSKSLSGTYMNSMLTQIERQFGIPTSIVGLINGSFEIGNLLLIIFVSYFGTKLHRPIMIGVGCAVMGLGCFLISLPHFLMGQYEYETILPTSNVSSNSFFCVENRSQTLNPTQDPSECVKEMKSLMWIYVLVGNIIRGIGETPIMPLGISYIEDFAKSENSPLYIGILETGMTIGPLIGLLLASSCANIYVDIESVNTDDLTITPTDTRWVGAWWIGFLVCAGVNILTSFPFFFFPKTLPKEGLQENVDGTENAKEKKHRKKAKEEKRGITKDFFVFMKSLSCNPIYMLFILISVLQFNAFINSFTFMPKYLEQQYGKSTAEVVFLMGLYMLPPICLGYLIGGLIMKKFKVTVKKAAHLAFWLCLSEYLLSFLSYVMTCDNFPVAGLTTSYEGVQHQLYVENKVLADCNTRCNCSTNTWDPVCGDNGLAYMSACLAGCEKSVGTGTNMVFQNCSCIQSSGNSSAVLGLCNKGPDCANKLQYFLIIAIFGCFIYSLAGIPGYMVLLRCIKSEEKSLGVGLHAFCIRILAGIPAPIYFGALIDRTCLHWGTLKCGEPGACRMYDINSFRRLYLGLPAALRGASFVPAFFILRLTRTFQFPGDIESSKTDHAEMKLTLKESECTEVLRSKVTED", "experiment": "as §1", "type": "functional, cell-based", "conditions": "oocyte"}, "[6]": {"target": "T6, Solute carrier organic anion transporter family member 1B2 (Rattus norvegicus, UniProt Q9QZX8)", "T6 sequence (Q9QZX8 whole entry)": "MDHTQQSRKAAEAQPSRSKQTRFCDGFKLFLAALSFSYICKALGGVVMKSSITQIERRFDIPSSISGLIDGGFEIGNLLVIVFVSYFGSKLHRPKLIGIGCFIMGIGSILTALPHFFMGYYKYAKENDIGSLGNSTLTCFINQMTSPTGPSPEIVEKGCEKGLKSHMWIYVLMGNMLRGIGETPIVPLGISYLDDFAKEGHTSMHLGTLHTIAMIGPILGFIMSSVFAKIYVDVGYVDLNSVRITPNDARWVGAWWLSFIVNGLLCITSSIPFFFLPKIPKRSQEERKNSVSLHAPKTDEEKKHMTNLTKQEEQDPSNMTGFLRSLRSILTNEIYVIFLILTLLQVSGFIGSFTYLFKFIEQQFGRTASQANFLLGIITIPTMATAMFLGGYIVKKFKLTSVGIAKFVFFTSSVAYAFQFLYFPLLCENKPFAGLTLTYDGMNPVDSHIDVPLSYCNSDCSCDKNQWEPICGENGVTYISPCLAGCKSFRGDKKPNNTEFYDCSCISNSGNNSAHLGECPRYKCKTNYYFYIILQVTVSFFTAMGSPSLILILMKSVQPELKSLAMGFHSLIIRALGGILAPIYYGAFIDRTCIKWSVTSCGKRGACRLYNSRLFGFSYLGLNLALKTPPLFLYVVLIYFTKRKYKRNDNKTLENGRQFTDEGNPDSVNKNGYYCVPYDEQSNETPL", "experiment": "as §1", "type": "functional, cell-based", "conditions": "oocyte"}, "[7]": {"target": "T7, Solute carrier organic anion transporter family member 2B1 (Homo sapiens, UniProt O94956)", "T7 sequence (O94956 whole entry)": "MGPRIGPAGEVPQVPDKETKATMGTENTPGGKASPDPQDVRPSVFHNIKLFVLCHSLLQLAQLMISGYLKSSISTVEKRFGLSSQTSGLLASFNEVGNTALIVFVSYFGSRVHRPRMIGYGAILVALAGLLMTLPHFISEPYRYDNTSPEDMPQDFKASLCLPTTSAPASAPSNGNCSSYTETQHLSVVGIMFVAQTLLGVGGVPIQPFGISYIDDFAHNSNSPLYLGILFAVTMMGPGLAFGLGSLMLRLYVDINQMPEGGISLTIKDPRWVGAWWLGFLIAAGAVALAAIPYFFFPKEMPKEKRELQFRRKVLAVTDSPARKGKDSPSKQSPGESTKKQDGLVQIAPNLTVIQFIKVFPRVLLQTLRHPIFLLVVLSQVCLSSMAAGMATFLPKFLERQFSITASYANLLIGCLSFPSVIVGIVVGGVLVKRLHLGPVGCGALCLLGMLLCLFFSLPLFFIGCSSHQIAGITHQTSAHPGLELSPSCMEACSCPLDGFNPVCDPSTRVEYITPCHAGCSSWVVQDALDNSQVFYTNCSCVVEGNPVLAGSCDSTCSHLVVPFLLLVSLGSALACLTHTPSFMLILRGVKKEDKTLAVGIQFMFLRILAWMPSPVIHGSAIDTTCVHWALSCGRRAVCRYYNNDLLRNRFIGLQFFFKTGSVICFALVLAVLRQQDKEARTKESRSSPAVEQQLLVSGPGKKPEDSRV", "experiment": "as §1", "type": "functional, cell-based", "conditions": "oocyte"}}, "note": "Numbered stars: 1 amine (or outer) side, 2 acyl side, 3 side chain; on linkers, the order of the positions; unused ones are H or OH. Bridge positions count the residues as written; N and C are the ends. Square brackets hold non-standard residues; d marks the D form. Peptide text beside a SMILES is read from it. Adda = CO[C@@H](Cc1ccccc1)[C@@H](C)/C=C(C)/C=C/[C@H](N[*:1])[C@H](C)C(=O)[*:2]; dAsp(3S-Me) = C[C@H](C(=O)[*:3])[C@@H](N[*:1])C(=O)[*:2]; d(γGlu) = O=C(O)[C@@H](CCC(=O)[*:2])N[*:1]; NMeDha = C=C(NC)C(=O)O"}
{"molecule": "C=C1C(=O)N[C@H](C)C(=O)N[C@@H](CC(C)C)C(=O)N[C@@H](C(=O)O)[C@H](C)C(=O)N[C@@H](CCCNC(=N)N)C(=O)N[C@@H](/C=C/C(C)=C/[C@H](C)[C@H](Cc2ccccc2)OC)[C@H](C)C(=O)N[C@@H](C(=O)O)CCC(=O)N1C", "note": "[MICROCYSTIN-LR] (R[Adda][d(γGlu)][NMeDha][dA]L[dAsp(3S-Me)]-OH; lactam N-7)", "values": [{"measurement": "Km", "setting": "[1]", "result": 20, "unit": "µM"}, {"measurement": "Km", "setting": "[2]", "result": 12.4, "unit": "µM"}, {"measurement": "Km", "setting": "[3]", "result": 12.4, "unit": "µM"}, {"measurement": "Activity", "setting": "[4]", "result": "is not a substrate [(-)]"}, {"measurement": "Activity", "setting": "[5]", "result": "is not a substrate [(-)]"}, {"measurement": "Activity", "setting": "[6]", "result": "substrate [(+)]"}, {"measurement": "Activity", "setting": "[7]", "result": "is not a substrate [(-)]"}]}
